According to patent US12257246B2, “Composition of 2,4,6-trifluoro-n-[6-(1-methyl-piperidin-4-carbonyl)-pyridin-2-yl[-benzamide” (CoLucid Pharmaceuticals, Inc., priority 2009, dated 2025):

Tests used:
migraine = details: in vivo; cited from earlier work
rabbit saphenous vein [1] = details: EC50 divided by %max KCl
rabbit saphenous vein [2] = experiment: cells; details: Oryctolagus cuniculus, read-out: saphenous vein contraction EC50

Structure (SMILES)	efficacy in acute treatment of migraine (migraine)	corrected vasoconstriction EC50 (rabbit saphenous vein [1])	EC50 (rabbit saphenous vein [2])
CN1CCC(c2c[nH]c3ccc(NC(=O)c4ccc(F)cc4)cc23)CC1 [LY334370]	proved effective		
CNS(=O)(=O)Cc1ccc2[nH]cc(CCN(C)C)c2c1 [sumatriptan]		0.0103 µM	0.66 µM
